What was measured:
Assay in all cases: relative viability (nuclei count vs DMSO), 5 days (fraction); higher = more cells survive
[1] = compound: C[C@]12O[C@H](C[C@]1(O)CO)n1c3ccccc3c3c4c(c5c6ccccc6n2c5c31)CNC4=O [Lestaurtinib] + Cc1nc(NC(=O)N2CCC[C@H]2C(N)=O)sc1-c1ccnc(C(C)(C)C(F)(F)F)c1 [Alpelisib] (partner 2 µM)
Summary of the method: (§1)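 Medians of duplicate plates are given as relative viability. That measure is the nuclei count in treated wells divided by the count in vehicle wells. Counts were taken on 4× images of lung cancer cell lines in 1536-well plates, 5 days after pin-tool dosing the day after seeding with one drug alone or a fixed anchor-drug dose plus five library-drug doses (not always all listed) in √10 steps.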

[2] = compound: C[C@]12O[C@H](C[C@]1(O)CO)n1c3ccccc3c3c4c(c5c6ccccc6n2c5c31)CNC4=O [Lestaurtinib] + COc1cccc2cc(-c3nc([C@H]4CC[C@H](C(=O)O)CC4)n4ncnc(N)c34)[nH]c12 [OSI-027] (partner 0.5 µM)
Summary of the method: as §1

[3] = compound: C[C@]12O[C@H](C[C@]1(O)CO)n1c3ccccc3c3c4c(c5c6ccccc6n2c5c31)CNC4=O [Lestaurtinib] + C[C@@H](Oc1cc(-c2cnn(C3CCNCC3)c2)cnc1N)c1c(Cl)ccc(F)c1Cl [Crizotinib] (partner 1 µM)
Summary of the method: as §1

[4] = compound: C[C@]12O[C@H](C[C@]1(O)CO)n1c3ccccc3c3c4c(c5c6ccccc6n2c5c31)CNC4=O [Lestaurtinib] + COc1cc2c(Oc3ccc(NC(=O)C4(C(=O)Nc5ccc(F)cc5)CC4)cc3F)ccnc2cc1OCCCN1CCOCC1 [Foretinib] (partner 0.25 µM)
Summary of the method: as §1

With NCI-H1651 the relative viability ([1]; first compound 0.005 µM) was 1.1, the relative viability ([1]; first compound 0.01581 µM) was 0.889 and the relative viability ([1]; first compound 0.05 µM) was 0.913. It also gave a relative viability ([1]; first compound 0.1581 µM) of 0.845, a relative viability ([1]; first compound 0.5 µM) of 0.529 and a relative viability ([2]; first compound 0.005 µM) of 0.745. It also gave a relative viability ([2]; first compound 0.01581 µM) of 0.799, a relative viability ([2]; first compound 0.05 µM) of 0.566 and a relative viability ([2]; first compound 0.1581 µM) of 0.753. For the same cell line, the relative viability ([2]; first compound 0.5 µM) was 0.493, the relative viability ([3]; first compound 0.005 µM) was 0.897 and the relative viability ([3]; first compound 0.01581 µM) was 0.997. It also gave a relative viability ([3]; first compound 0.05 µM) of 0.837, a relative viability ([3]; first compound 0.1581 µM) of 0.858 and a relative viability ([3]; first compound 0.5 µM) of 0.551. The relative viability ([4]; first compound 0.005 µM) was 0.85, the relative viability ([4]; first compound 0.01581 µM) was 0.8 and the relative viability ([4]; first compound 0.05 µM) was 0.844. For the same cell line, the relative viability ([4]; first compound 0.1581 µM) was 0.865 and the relative viability ([4]; first compound 0.5 µM) was 0.53.
In the case of NCI-H1666, the relative viability ([1]; first compound 0.005 µM) is reported as 0.915, the relative viability ([1]; first compound 0.01581 µM) is reported as 1.05 and the relative viability ([1]; first compound 0.05 µM) is reported as 1.02. For the same cell line, the relative viability ([1]; first compound 0.1581 µM) was 0.493, the relative viability ([1]; first compound 0.5 µM) was 0.442 and the relative viability ([2]; first compound 0.005 µM) was 0.904. The relative viability ([2]; first compound 0.01581 µM) was 0.934, the relative viability ([2]; first compound 0.05 µM) was 0.917 and the relative viability ([2]; first compound 0.1581 µM) was 0.757. For the same cell line, the relative viability ([2]; first compound 0.5 µM) was 0.518, the relative viability ([3]; first compound 0.005 µM) was 1.04 and the relative viability ([3]; first compound 0.01581 µM) was 1.38. It also gave a relative viability ([3]; first compound 0.05 µM) of 1.39, a relative viability ([3]; first compound 0.1581 µM) of 0.96 and a relative viability ([3]; first compound 0.5 µM) of 0.409. The relative viability ([4]; first compound 0.005 µM) was 1.1, the relative viability ([4]; first compound 0.01581 µM) was 1.07 and the relative viability ([4]; first compound 0.05 µM) was 1.6. It also gave a relative viability ([4]; first compound 0.1581 µM) of 1.02 and a relative viability ([4]; first compound 0.5 µM) of 0.595.
Cell Line NCI-H1734 has a relative viability ([1]; first compound 0.005 µM) of 0.732, a relative viability ([1]; first compound 0.01581 µM) of 0.689 and a relative viability ([1]; first compound 0.05 µM) of 0.569. It also gave a relative viability ([1]; first compound 0.1581 µM) of 0.377, a relative viability ([1]; first compound 0.5 µM) of 0.304 and a relative viability ([2]; first compound 0.005 µM) of 0.678. For the same cell line, the relative viability ([2]; first compound 0.01581 µM) was 0.571, the relative viability ([2]; first compound 0.05 µM) was 0.368 and the relative viability ([2]; first compound 0.1581 µM) was 0.362. It also gave a relative viability ([2]; first compound 0.5 µM) of 0.187, a relative viability ([3]; first compound 0.005 µM) of 0.741 and a relative viability ([3]; first compound 0.01581 µM) of 0.649. It also gave a relative viability ([3]; first compound 0.05 µM) of 0.538, a relative viability ([3]; first compound 0.1581 µM) of 0.424 and a relative viability ([3]; first compound 0.5 µM) of 0.205. The relative viability ([4]; first compound 0.005 µM) was 0.891, the relative viability ([4]; first compound 0.01581 µM) was 0.951 and the relative viability ([4]; first compound 0.05 µM) was 0.705. For the same cell line, the relative viability ([4]; first compound 0.1581 µM) was 0.383 and the relative viability ([4]; first compound 0.5 µM) was 0.179.
NCI-H1755 gave a relative viability ([1]; first compound 0.005 µM) of 1, a relative viability ([1]; first compound 0.01581 µM) of 0.927 and a relative viability ([1]; first compound 0.05 µM) of 0.571. It also gave a relative viability ([1]; first compound 0.1581 µM) of 0.349, a relative viability ([1]; first compound 0.5 µM) of 0.202 and a relative viability ([2]; first compound 0.005 µM) of 0.814. It also gave a relative viability ([2]; first compound 0.01581 µM) of 0.706, a relative viability ([2]; first compound 0.05 µM) of 0.471 and a relative viability ([2]; first compound 0.1581 µM) of 0.406. It also gave a relative viability ([2]; first compound 0.5 µM) of 0.338, a relative viability ([3]; first compound 0.005 µM) of 0.865 and a relative viability ([3]; first compound 0.01581 µM) of 0.645. The relative viability ([3]; first compound 0.05 µM) was 0.724, the relative viability ([3]; first compound 0.1581 µM) was 0.438 and the relative viability ([3]; first compound 0.5 µM) was 0.268. The relative viability ([4]; first compound 0.005 µM) was 0.891, the relative viability ([4]; first compound 0.01581 µM) was 0.938 and the relative viability ([4]; first compound 0.05 µM) was 0.788. The relative viability ([4]; first compound 0.1581 µM) was 0.494 and the relative viability ([4]; first compound 0.5 µM) was 0.412.
With NCI-H1915 the relative viability ([1]; first compound 0.005 µM) was 1.06, the relative viability ([1]; first compound 0.01581 µM) was 1.05 and the relative viability ([1]; first compound 0.05 µM) was 1.04. For the same cell line, the relative viability ([1]; first compound 0.1581 µM) was 0.761, the relative viability ([1]; first compound 0.5 µM) was 0.376 and the relative viability ([2]; first compound 0.005 µM) was 0.687. It also gave a relative viability ([2]; first compound 0.01581 µM) of 0.477, a relative viability ([2]; first compound 0.05 µM) of 0.42 and a relative viability ([2]; first compound 0.1581 µM) of 0.337. It also gave a relative viability ([2]; first compound 0.5 µM) of 0.246, a relative viability ([3]; first compound 0.005 µM) of 0.914 and a relative viability ([3]; first compound 0.01581 µM) of 1.1. For the same cell line, the relative viability ([3]; first compound 0.05 µM) was 0.816, the relative viability ([3]; first compound 0.1581 µM) was 0.848 and the relative viability ([3]; first compound 0.5 µM) was 0.357. The relative viability ([4]; first compound 0.005 µM) was 1.14, the relative viability ([4]; first compound 0.01581 µM) was 1.21 and the relative viability ([4]; first compound 0.05 µM) was 0.869. For the same cell line, the relative viability ([4]; first compound 0.1581 µM) was 0.762 and the relative viability ([4]; first compound 0.5 µM) was 0.287.
NCI-H1944 gave a relative viability ([1]; first compound 0.005 µM) of 0.82, a relative viability ([1]; first compound 0.01581 µM) of 0.745 and a relative viability ([1]; first compound 0.05 µM) of 0.61. It also gave a relative viability ([1]; first compound 0.1581 µM) of 0.41, a relative viability ([1]; first compound 0.5 µM) of 0.383 and a relative viability ([2]; first compound 0.005 µM) of 0.483. It also gave a relative viability ([2]; first compound 0.01581 µM) of 0.406, a relative viability ([2]; first compound 0.05 µM) of 0.322 and a relative viability ([2]; first compound 0.1581 µM) of 0.31. For the same cell line, the relative viability ([2]; first compound 0.5 µM) was 0.292, the relative viability ([3]; first compound 0.005 µM) was 1.13 and the relative viability ([3]; first compound 0.01581 µM) was 1.28. For the same cell line, the relative viability ([3]; first compound 0.05 µM) was 0.745, the relative viability ([3]; first compound 0.1581 µM) was 0.695 and the relative viability ([3]; first compound 0.5 µM) was 0.362. For the same cell line, the relative viability ([4]; first compound 0.005 µM) was 0.909, the relative viability ([4]; first compound 0.01581 µM) was 0.848 and the relative viability ([4]; first compound 0.05 µM) was 0.698. It also gave a relative viability ([4]; first compound 0.1581 µM) of 0.652 and a relative viability ([4]; first compound 0.5 µM) of 0.366.
Work on NCI-H1975 yielded a relative viability ([1]; first compound 0.005 µM) of 0.658, a relative viability ([1]; first compound 0.01581 µM) of 0.644 and a relative viability ([1]; first compound 0.05 µM) of 0.372. For the same cell line, the relative viability ([1]; first compound 0.1581 µM) was 0.347, the relative viability ([1]; first compound 0.5 µM) was 0.212 and the relative viability ([2]; first compound 0.005 µM) was 0.795. For the same cell line, the relative viability ([2]; first compound 0.01581 µM) was 0.75, the relative viability ([2]; first compound 0.05 µM) was 0.534 and the relative viability ([2]; first compound 0.1581 µM) was 0.412. It also gave a relative viability ([2]; first compound 0.5 µM) of 0.347, a relative viability ([3]; first compound 0.005 µM) of 0.943 and a relative viability ([3]; first compound 0.01581 µM) of 0.988. The relative viability ([3]; first compound 0.05 µM) was 0.707, the relative viability ([3]; first compound 0.1581 µM) was 0.867 and the relative viability ([3]; first compound 0.5 µM) was 0.586. The relative viability ([4]; first compound 0.005 µM) was 1.09, the relative viability ([4]; first compound 0.01581 µM) was 0.99 and the relative viability ([4]; first compound 0.05 µM) was 0.927. It also gave a relative viability ([4]; first compound 0.1581 µM) of 0.731 and a relative viability ([4]; first compound 0.5 µM) of 0.538.
Cell Line NCI-H1993 has a relative viability ([1]; first compound 0.005 µM) of 0.788, a relative viability ([1]; first compound 0.01581 µM) of 0.677 and a relative viability ([1]; first compound 0.05 µM) of 0.691. The relative viability ([1]; first compound 0.1581 µM) was 0.591, the relative viability ([1]; first compound 0.5 µM) was 0.583 and the relative viability ([2]; first compound 0.005 µM) was 0.59. It also gave a relative viability ([2]; first compound 0.01581 µM) of 0.555, a relative viability ([2]; first compound 0.05 µM) of 0.524 and a relative viability ([2]; first compound 0.1581 µM) of 0.534. For the same cell line, the relative viability ([2]; first compound 0.5 µM) was 0.423, the relative viability ([3]; first compound 0.005 µM) was 0.936 and the relative viability ([3]; first compound 0.01581 µM) was 0.971. For the same cell line, the relative viability ([3]; first compound 0.05 µM) was 0.819, the relative viability ([3]; first compound 0.1581 µM) was 0.635 and the relative viability ([3]; first compound 0.5 µM) was 0.548. It also gave a relative viability ([4]; first compound 0.005 µM) of 0.791, a relative viability ([4]; first compound 0.01581 µM) of 0.771 and a relative viability ([4]; first compound 0.05 µM) of 0.77. For the same cell line, the relative viability ([4]; first compound 0.1581 µM) was 0.63 and the relative viability ([4]; first compound 0.5 µM) was 0.535.

From the supplement of paper PMC10307832
